Data published in US4612185A, “Methods and compositions for enhancing magnetic resonance imaging” (Mallinckrodt, Inc., priority 1984, dated 1986).

What was measured:
[1] = system: mice; experiment: Acute intravenous toxicity in mice, 7-day observation, LD50 by Litchfield and Wilcoxon; type: in vivo, mouse (Swiss ICR CD-1); conditions: for MORTALITIES/NUMBER TREATED / AVERAGE SURVIVOR WEEKLY BODY WEIGHT CHANGE: single intravenous; for MORTALITIES/NUMBER TREATED: 7 days; for AVERAGE SURVIVOR WEEKLY BODY WEIGHT CHANGE: survivors
Description: Sodium [2-(trifluoromethyl) benzamido] acetate was prepared as a 20% w/v solution in sterile water for injection and the pH was adjusted to 7.0 using 0.1 N HCl.
A total of 14 mice (7 male, 24.6-30.0 g; 7 females, 18.6-26.0 g; Swiss ICR CD-1, Charles River) were used. Animals were housed according to standard operating procedures and marked for identification with picric acid.
Groups of 2-3 mice received single intravenous injections of sodium [2-(trifluoromethyl)benzamido]acetate according to the followinq schedule:
Measured single doses were injected into the lateral tail vein at a rate of 1 ml/min. The animals were observed immediately after dosing and during the 7-day observation period for pharmacotoxic reactions. Recording of terminal body weights and general necrospy of the thoracic and abdominal organs was performed after 7 days. An LD50 value was calculated using the method of Litchfield and Wilcoxon (J. Pharmacol. Exp. Ther. 96:99,1949).

[2] = system: liver or kidney; experiment: In vivo fluorine (19F) MR spectra of liver and kidney in anesthetized rabbit; conditions: 4 mmol F/kg intravenous, 1.9 Tesla
Text: (§1) An anesthetized rabbit was placed in a 12 inch bore, 1.9 Tesla MRI magnet. An RF coil ([…], I.D., 4 cm, O.D.) was placed on the surface of the liver or a kidney which were excised surgically. Fluorine spectra were obtained following 4 mmol F/kg intravenous doses of a solution of sodium [2-(trifluoromethyl)benzamido]acetate (20%, w/v, 2.2 M F, of the compound).

[3] = system: liver, heart, kidney, skeletal muscle, spleen, blood and urine samples; experiment: Fluorine analysis of rabbit tissue, blood and urine samples by MR spectroscopy; type: in vivo; conditions: 4 mmol F/kg intravenous, conclusion of experiment
Text: as §1
At the conclusion of the experiment, the rabbit was killed and liver, heart, kidney, skeletal muscle, spleen, blood and urine samples were analyzed for fluorine by MR spectroscopy.

O=C([O-])CNC(=O)c1ccccc1C(F)(F)F.[Na+] [sodium [2-(trifluoromethyl)benzamido]acetate]
MORTALITIES/NUMBER TREATED ([1]; 1000 mg/kg): 0/2
AVERAGE SURVIVOR WEEKLY BODY WEIGHT CHANGE ([1]; 1000 mg/kg): 0.1 g
MORTALITIES/NUMBER TREATED ([1]; 2000 mg/kg): 0/2
AVERAGE SURVIVOR WEEKLY BODY WEIGHT CHANGE ([1]; 2000 mg/kg): 2.2 g
MORTALITIES/NUMBER TREATED ([1]; 4000 mg/kg): 0/2
AVERAGE SURVIVOR WEEKLY BODY WEIGHT CHANGE ([1]; 4000 mg/kg): 1.8 g
MORTALITIES/NUMBER TREATED ([1]; 6000 mg/kg): 1/3
AVERAGE SURVIVOR WEEKLY BODY WEIGHT CHANGE ([1]; 6000 mg/kg): 1.0 g
MORTALITIES/NUMBER TREATED ([1]; 7000 mg/kg): 2/3
AVERAGE SURVIVOR WEEKLY BODY WEIGHT CHANGE ([1]; 7000 mg/kg): 2.7 g
MORTALITIES/NUMBER TREATED ([1]; 8000 mg/kg): 2/2
reactions preceding death ([1]; intravenous, all deaths): mild convulsions
time of deaths after treatment ([1]; intravenous, all deaths): ≤ 10 min
time after treatment within which all survivors appeared normal ([1]; intravenous, all survivors): ≤ 5 h
toxic reactions (hyperactivity) ([1]; intravenous, doses=2000 mg/kg (so in the source)): mild hyperactivity
toxic reactions (hypoactivity) ([1]; intravenous, doses=4000 mg/kg (so in the source)): dose-related hypoactivity
body weight of one survivor, week after treatment ([1]; intravenous, one survivor dosed with 1000 mg): body weight loss
body weight of all other survivors ([1]; intravenous, one week): weight gains
estimated mouse intravenous LD50 ([1]; mouse, intravenous, compound dose): 6500 mg/kg
intravenous toxicity profile ([1]; summary statement of toxicity studies): extremely good intravenous toxicity profile
necropsy findings ([1]; thoracic and abdominal organs, following one week observation): No abnormalities were observed
fluorine spectra in liver and kidney ([2]; both liver and kidney): only a single peak which was the same as the spectrum from a solution of sodium [2-(trifluoromethyl)benzamido]acetate
fluorine signal intensity in kidney ([2]; kidney): peaked very rapidly in the kidney and remained elevated for several minutes
fluorine signal intensity in liver ([2]; liver versus kidney): less than that for the kidney and took a longer time to peak
fluorine concentrations in kidney, urine and blood [3]: highest concentrations of fluorine
fluorine in other tissue specimens ([3]; specimens other than kidney, urine, blood): minimal fluorine detected
